From paper PMC5423648, “Acetyl group coordinated progression through the catalytic cycle of an arylalkylamine N-acetyltransferase” (PLoS ONE, 2017)

Target: T1, DAT (Drosophila melanogaster, UniProt Q94521)
T1 construct: gene speck; construct, tags and host of the DAT used for ITC not described
Assay: ITC
Assay type: binding

T1 sequence (Q94521 36-275): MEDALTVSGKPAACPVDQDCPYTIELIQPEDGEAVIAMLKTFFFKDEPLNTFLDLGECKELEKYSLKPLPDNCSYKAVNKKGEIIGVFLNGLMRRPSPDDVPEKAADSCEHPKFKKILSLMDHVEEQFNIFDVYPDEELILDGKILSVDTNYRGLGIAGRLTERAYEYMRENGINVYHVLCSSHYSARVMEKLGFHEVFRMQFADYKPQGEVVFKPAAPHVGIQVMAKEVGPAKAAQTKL

Kd: 3.7 ± 0.1 µM
SMILES: CC(=O)SCCNC(=O)CCNC(=O)[C@H](O)C(C)(C)COP(=O)(O)OP(=O)(O)OC[C@H]1O[C@@H](n2cnc3c(N)ncnc32)[C@H](O)[C@@H]1OP(=O)(O)O [acetyl-CoA]
